Laboratory results published in ChEMBL document CHEMBL3259522, “Synthesis and biological evaluation of some 2-(3,5-dimethyl-1H-pyrazol-1-yl)-1-arylethanones: antibacterial, DNA photocleavage, and anticancer activities” (2014).
Values after ≈ are worked out from the molar mass of the structure shown. Active and inactive are the calls of the source. The calls are words filed in the database; no cut-off is given here.

Tests used:
Staphylococcus aureus [1] = experiment: Antibacterial activity against Staphylococcus aureus assessed as growth inhibition after 24 hrs by two fold serial dilution method; assay type: functional
[2] = Induction of DNA degradation in open circular plasmid DNA (unknown origin) by agarose gel electrophoresis in absence of UV light
HCT-116 [3] = experiment: Anticancer activity against human HCT116 cells assessed as cell viability after 48 hrs by MTT assay; assay type: functional, cell-based
Escherichia coli [4] = experiment: Antibacterial activity against Escherichia coli assessed as diameter of growth inhibition zone after 24 hrs by two fold serial dilution method; assay type: functional
Escherichia coli [5] = experiment: Antibacterial activity against Escherichia coli assessed as growth inhibition after 24 hrs by two fold serial dilution method; assay type: functional
Enterococcus [6] = experiment: Antibacterial activity against Enterococcus assessed as diameter of growth inhibition zone after 24 hrs by two fold serial dilution method; assay type: functional
Enterococcus [7] = experiment: Antibacterial activity against Enterococcus assessed as growth inhibition after 24 hrs by two fold serial dilution method; assay type: functional
[8] = Induction of DNA degradation in supercoiled plasmid DNA (unknown origin) by agarose gel electrophoresis in absence of UV light
Staphylococcus aureus [9] = experiment: Antibacterial activity against Staphylococcus aureus assessed as diameter of growth inhibition zone after 24 hrs by two fold serial dilution method; assay type: functional
Pseudomonas aeruginosa [10] = experiment: Antibacterial activity against Pseudomonas aeruginosa assessed as diameter of growth inhibition zone after 24 hrs by two fold serial dilution method; assay type: functional
Klebsiella pneumoniae [11] = experiment: Antibacterial activity against Klebsiella pneumoniae assessed as diameter of growth inhibition zone after 24 hrs by two fold serial dilution method; assay type: functional
Pseudomonas aeruginosa [12] = experiment: Antibacterial activity against Pseudomonas aeruginosa assessed as growth inhibition after 24 hrs by two fold serial dilution method; assay type: functional
Klebsiella pneumoniae [13] = experiment: Antibacterial activity against Klebsiella pneumoniae assessed as growth inhibition after 24 hrs by two fold serial dilution method; assay type: functional
[14] = Induction of DNA photocleavage in supercoiled plasmid DNA (unknown origin) at 5 ug by agarose gel electrophoresis in presence of UV light
[15] = Induction of DNA photocleavage in supercoiled plasmid DNA (unknown origin) at 60 ug by agarose gel electrophoresis in presence of UV light
[16] = Induction of DNA photocleavage in supercoiled plasmid DNA (unknown origin) at 15 ug by agarose gel electrophoresis in presence of UV light
[17] = Induction of DNA photocleavage in open circular plasmid DNA (unknown origin) at 30 ug by agarose gel electrophoresis in presence of UV light
[18] = Induction of DNA photocleavage in open circular plasmid DNA (unknown origin) at 60 ug by agarose gel electrophoresis in presence of UV light
[19] = Induction of DNA photocleavage in supercoiled plasmid DNA (unknown origin) at 2.5 ug by agarose gel electrophoresis in presence of UV light
[20] = Induction of DNA photocleavage in open circular plasmid DNA (unknown origin) at 2.5 ug by agarose gel electrophoresis in presence of UV light
[21] = Induction of DNA photocleavage in open circular plasmid DNA (unknown origin) at 5 ug by agarose gel electrophoresis in presence of UV light
[22] = Induction of DNA photocleavage in open circular plasmid DNA (unknown origin) at 1 ug by agarose gel electrophoresis in presence of UV light
[23] = Induction of DNA photocleavage in open circular plasmid DNA (unknown origin) at 15 ug by agarose gel electrophoresis in presence of UV light
[24] = Induction of DNA photocleavage in supercoiled plasmid DNA (unknown origin) at 1 ug by agarose gel electrophoresis in presence of UV light
[25] = Induction of DNA photocleavage in supercoiled plasmid DNA (unknown origin) at 30 ug by agarose gel electrophoresis in presence of UV light
Pseudomonas aeruginosa [26] = experiment: Antibacterial activity against Pseudomonas aeruginosa assessed as growth inhibition after 24 hrs by two fold serial dilution method relative to ampicillin; assay type: functional; parameters: scale not given: the % may be the effect or the level left
Escherichia coli [27] = experiment: Antibacterial activity against Escherichia coli assessed as growth inhibition after 24 hrs by two fold serial dilution method relative to ampicillin; assay type: functional; parameters: scale not given: the % may be the effect or the level left
HCT-116 [28] = experiment: Anticancer activity against human HCT116 cells assessed as cell viability at 10 uM after 48 hrs by MTT assay; assay type: functional; conditions: HCT-116, 48 h, read-out: Activity
HT-29 = experiment: Anticancer activity against human HT-29 cells assessed as cell viability at 50 uM after 72 hrs by MTT assay; assay type: functional, cell-based
HCT-116 [29] = experiment: Anticancer activity against human HCT116 cells assessed as cell viability at 25 uM after 48 hrs by MTT assay; assay type: functional; conditions: HCT-116, 48 h, read-out: Activity
HCT-116 [30] = experiment: Anticancer activity against human HCT116 cells assessed as cell viability at 50 uM after 48 hrs by MTT assay; assay type: functional; conditions: HCT-116, 48 h, read-out: Activity
SK-OV-3 = experiment: Anticancer activity against human SKOV3 cells assessed as cell viability after 72 hrs by MTT assay; assay type: functional, cell-based
DU-145 = experiment: Anticancer activity against human DU145 cells assessed as cell viability at 50 uM after 72 hrs by MTT assay; assay type: functional, cell-based
A549 = experiment: Anticancer activity against human A549 cells assessed as cell viability after 72 hrs by MTT assay; assay type: functional, cell-based

Row | SMILES | MIC (Staphylococcus aureus [1]) | Activity [2] | Activity (HCT-116 [3]) | diameter of the inhibition zone (DIZ) (Escherichia coli [4]) | MIC (Escherichia coli [5]) | diameter of the inhibition zone (DIZ) (Enterococcus [6]) | MIC (Enterococcus [7]) | Activity [8] | diameter of the inhibition zone (DIZ) (Staphylococcus aureus [9]) | diameter of the inhibition zone (DIZ) (Pseudomonas aeruginosa [10]) | diameter of the inhibition zone (DIZ) (Klebsiella pneumoniae [11]) | MIC (Pseudomonas aeruginosa [12]) | MIC (Klebsiella pneumoniae [13]) | Activity [15] | Activity [16] | Activity [17] | Activity [18] | Activity [23] | Activity [25] | further results
1 | Cc1ccc(C(=O)Cn2nc(C)cc2C)cc1 | 256 µg/mL (≈ 1120 µM) | inactive | inactive | 11 mm | 512 µg/mL (≈ 2240 µM) | 15 mm | 64 µg/mL (≈ 280 µM) | inactive | 11 mm |  |  |  |  |  |  |  |  |  |  | 
2 | Cc1cc(C)n(CC(=O)c2cccc(Cl)c2)n1 |  | inactive | inactive | 10 mm | 512 µg/mL (≈ 2060 µM) | 10 mm | 512 µg/mL (≈ 2060 µM) | inactive |  |  |  |  |  |  |  |  |  |  |  | 
3 | CC1(C)S[C@@H]2[C@H](NC(=O)[C@H](N)c3ccccc3)C(=O)N2[C@H]1C(=O)O [AMPICILLIN] | 2 µg/mL (≈ 5.72 µM) |  |  | 16 mm | 8 µg/mL (≈ 22.9 µM) | 18 mm | 2 µg/mL (≈ 5.72 µM) |  | 16 mm | 14 mm | 13 mm | 8 µg/mL (≈ 22.9 µM) | 2 µg/mL (≈ 5.72 µM) |  |  |  |  |  |  | 
4 | Cc1cc(C)n(CC(=O)c2ccccc2F)n1 | 256 µg/mL (≈ 1100 µM) | inactive | inactive | 11 mm | 256 µg/mL (≈ 1100 µM) | 10 mm | 256 µg/mL (≈ 1100 µM) | inactive | 10 mm | 11 mm |  | 256 µg/mL (≈ 1100 µM) |  |  |  |  |  |  |  | 
5 | Cc1cc(C)n(CC(=O)c2ccc([N+](=O)[O-])cc2)n1 | 128 µg/mL (≈ 494 µM) | inactive | inactive | 11 mm | 256 µg/mL (≈ 987 µM) | 14 mm | 256 µg/mL (≈ 987 µM) | inactive | 13 mm |  |  |  |  | Active | Active | Active | Active | Active | Active | Activity [14]: Active; Activity [19]: Active; Activity [20]: Active; Activity [21]: Active; Activity [22]: Active; Activity [24]: Active
6 | Cc1cc(C)n(CC(=O)c2ccc(F)cc2)n1 | 256 µg/mL (≈ 1100 µM) | inactive | inactive | 15 mm | 64 µg/mL (≈ 276 µM) | 15 mm | 64 µg/mL (≈ 276 µM) | inactive | 11 mm | 11 mm | 9 mm | 256 µg/mL (≈ 1100 µM) | 256 µg/mL (≈ 1100 µM) | Active | Active | Active | Active | Active | Active | Activity (Pseudomonas aeruginosa [26]): 12.5%; Activity (Escherichia coli [27]): 12.5%
7 | Cc1cc(C)n(CC(=O)c2ccccc2)n1 | 512 µg/mL (≈ 2390 µM) | inactive |  | 11 mm | 512 µg/mL (≈ 2390 µM) | 13 mm | 512 µg/mL (≈ 2390 µM) | inactive | 10 mm | 13 mm | 10 mm | 64 µg/mL (≈ 299 µM) | 64 µg/mL (≈ 299 µM) |  |  |  |  |  |  | viability at 10 µM (HCT-116 [28]): 81.4%; Activity (Pseudomonas aeruginosa [26]): 12.5%; Activity (HT-29): inactive; Activity (Escherichia coli [27]): 12.5%; viability at 25 µM (HCT-116 [29]): 55.4%; viability at 50 µM (HCT-116 [30]): 52.4%; Activity (SK-OV-3): inactive; Activity (DU-145): inactive
8 | Cc1cc(C)n(CC(=O)c2ccc(F)cc2F)n1 | 256 µg/mL (≈ 1020 µM) | inactive | inactive | 9 mm | 512 µg/mL (≈ 2050 µM) | 10 mm | 512 µg/mL (≈ 2050 µM) | inactive | 10 mm |  |  |  |  | Active | inactive | Active | Active | inactive | Active | Activity [14]: inactive; Activity [19]: inactive; Activity [20]: inactive; Activity [21]: inactive; Activity [22]: inactive; Activity [24]: inactive
9 | Cc1cc(C)n(CC(=O)c2cccc3ccccc23)n1 |  | inactive |  |  |  | 12 mm | 256 µg/mL (≈ 968 µM) | inactive |  |  |  |  |  | Active |  |  | Active |  |  | viability at 10 µM (HCT-116 [28]): 73.4%; Activity (HT-29): inactive; viability at 25 µM (HCT-116 [29]): 60.8%; viability at 50 µM (HCT-116 [30]): 34.6%; Activity (SK-OV-3): inactive; Activity (A549): Active; Activity (DU-145): inactive
10 | Cc1cc(C)n(CC(=O)c2ccc(Cl)cc2)n1 | 256 µg/mL (≈ 1030 µM) | inactive | inactive | 14 mm | 256 µg/mL (≈ 1030 µM) | 12 mm | 512 µg/mL (≈ 2060 µM) | inactive | 12 mm |  |  |  |  |  |  |  |  |  |  | 
